Values quoted from earlier work as cited in patent publication US6365170B1, “Use of a disinfectant for living fish” (USF Filtration & Separations Spa-Div. Perdomini, priority 1998, dated 2002).

System: salmon louse (Lepeophtheirus Salmonis)
Settings: hydrogen peroxide around 1.5 g/l for longer than 20 minutes

For OO [hydrogen peroxide], the success percentage is given as about 100%.
